Source: patent US20220096515A1, “Methods and Formulations for Preventing Neurological or Psychiatric Disorders” (Huntington Medical Research Institutes, priority 2020, published 2022)

Columns and labels:
Daxx = Daxx mRNA and protein levels in endothelial cells after prenatal treatment; assay type: in vivo, mouse
Experimental: Primary culture of endothelial cells and endothelial cell staining: Embryonic brains were dissected under a stereo-microscope, after the NAD^+ treatment paradigm and the telencephalon was removed. Pial membranes were peeled off. Telencephalon without pial membranes from the periventricular region was pooled. Purity of endothelial cell cultures was established with endothelial cell markers and determined to be one hundred percent. Isolation and culture of endothelial cells were performed according to published methodology. Periventricular endothelial cells were prepared from CD1 (wild type), saline-treated Gabrb3^fl/fl, saline-treated Gabrb3^ECKO, and NAD^+-treated Gabrb3^ECKO embryos. Endothelial cells were labeled with anti-biotinylated isolectinB4 (1:100, Sigma), anti-GABA (1:400, Sigma), anti-DAXX (1:100, Santa Cruz Biotechnology) and anti-P2X4 (1:100, Abclonal) followed by secondary detection with AlexaFluor conjugates (Invitrogen). DAPI (Invitrogen) was used to label nuclei. Images were taken on an FSX100 microscope (Olympus). 1 million cells were examined for each immunohistochemistry condition.
Quantitative real-time PCR: RT was performed by using iScript Reverse Transcription Supermix kit (Bio-Rad). […] The relative gene expression and subsequent fold changes among different samples were determined according to published methodology. […]

[1] = tested on: Gabrb3^ECKO telencephalon; assay: Prenatal NAD+ treatment (E12-E17), histology/IHC of E18 telencephalon; assay type: in vivo, mouse
Excerpt: Animals: Timed pregnant CD1 mice were purchased from Charles River laboratories, MA. Colonies of GAD65-GFP mice were maintained in our institutional animal facility. Tie2-cre mice and Gabrb3 floxed (Gabrb3^fl/fl) mice were obtained from Jackson Labs. The Tie2-cre transgene is known for uniform expression of cre-recombinase in endothelial cells during embryogenesis and adulthood. To selectively delete Gabrb3 in endothelial cells, Tie2-cre transgenic mice (males) were crossed to Gabrb3^fl/fl mice (females) to generate Tie2-cre; Gabrb3^fl/+ mice (males). These were further crossed with Gabrb3^fl/fl mice (females) to obtain the Gabrb3 conditional knock-outs (Tie2-cre; Gabrb3^fl/fl mice). The day of plug discovery was designated embryonic day 0 (E0). Animal experiments were in full compliance with the NIH Guide for Care and Use of Laboratory Animals and were approved by the HMRI and McLean Institutional Animal Care Committees.
Histology, immunohistochemistry, and microscopic analysis: Paraffin immunohistochemistry (IHC) was performed on embryonic brains only while frozen section IHC was used on both embryonic and adult brains. Briefly, for paraffin IHC-E18 brains were fixed in zinc fixative (BD Biosciences PharMingen) for 24 h and processed for paraffin histology. Histological stainings with hematoxylin (Vector Laboratories) and eosin (Sigma) were performed on 8 μm coronal sections. Lectin histochemistry (with biotinylated isolectin B4, 1:50, Sigma) as well as IHC was performed on 20 μm sections. Primary antibodies used for IHC were as follows: anti-PHH3 (1:200, Millipore) and anti-NKX2.1, (1:50; Sigma) followed by secondary detection with AlexaFluor conjugates (Invitrogen). DAPI (Vector Laboratories) was used to label nuclei. For frozen section IHC, E18 and P90 brains were removed, fixed in 4% PFA for 24 hours, cryo-protected in sucrose gradient, embedded into OCT medium for frozen blocks; sectioned at 40 μm on a cryostat and immunostained with anti-GABA (1:80, Sigma) and anti -PROX1 (1:80, Millipore) antibodies. Twenty sections from each brain were used for IHC and histology experiments. Uniform penetration of antibodies or stains throughout the section was ascertained and quality of the staining in each digital section was examined. […] All low and high-magnification images were obtained from an FSX100 microscope (Olympus).
Morphometry: A stereological point grid was superimposed on digital images of biotinylated isolectin-B4+ vessels using ImageJ software. The ratio between points falling on blood vessels and on brain tissue was calculated for each section, and average values were obtained.
This vascular deficit in the embryonic telencephalon persisted in the adult cerebral cortex with larger vessel diameters likely correlating with increased perfusion and indicative of functional changes in blood flow in Gabrb3^ECKO vessels. A summary of the embryonic and postnatal phenotype highlights (FIG. 3A) the importance of the endothelial GABA pathway for telencephalic angiogenesis, and for maintaining neuro-vascular interactions. Therefore, given its pro-angiogenic properties (FIGS. 2A-2J), NAD^+ treatment during the prenatal period was tested for its ability to improve angiogenesis in the Gabrb3^ECKO telencephalon. The periventricular ventral-dorsal angiogenesis gradient is established by E11, after which neuronal cells originating from ventricular zones navigate along radial and tangential courses, to adopt final laminar positions and integrate into specific brain circuits. Therefore, the approach was to target only the critical window of mouse prenatal brain development: E12 to E17. In the Gabrb3^ECKO telencephalon, the periventricular vessel gradient is formed normally at E11, but reductions in vascular density and abnormal vascular profiles are observed from E13 onward. […]

With NC(=O)c1ccc[n+]([C@@H]2O[C@H](COP(=O)([O-])OP(=O)(O)OC[C@H]3O[C@@H](n4cnc5c(N)ncnc54)[C@H](O)[C@@H]3O)[C@@H](O)[C@H]2O)c1 [NAD^+] the “Daxx mRNA and DAXX protein levels” value (Daxx) was “normalize DAXX levels”, the periventricular vessel densities ([1]; 10 mg in 100 μl saline i.p. daily to pregnant dams E12-E17, E18, vs saline-treated Gabrb3^ECKO) was “significant improvement in periventricular vessel densities” and the “NKX2.1 expression in MGE” value ([1]; E18) was “significantly enriched in the MGE”. The PROX1 expression ([1]; E18) was “significantly increased”, the “number of PHH3^+ cells at VZ/SVZ surface of ventral telencephalon” value ([1]; E18) was “significantly increased the number of PHH3^+ cells” and the “profile of GABAergic neurons (GABA immunoreactivity)” value ([1]; E18) was “restored”. The “vascular patterns around lateral ventricle / ganglionic eminence” value ([1]; E18, 20 μm sections) was “uniform vascular patterns were restored”, the “cell cluster in MGE (H&E)” value ([1]; NAD^+-treated Gabrb3^ECKO mice, E18) was “a cluster of cells were observed in the medial ganglionic eminence (MGE)” and the “overall morphology of telencephalon (H&E)” value ([1]; treatment E12 to E17, E18) was “significantly improved the overall morphology”.
